In assay [1] the target is T1, Human NAMPT (Homo sapiens, UniProt P43490).
T1 construct: made in house; host or cells: E. coli
Put plainly: in vitro NAMPT coupled-enzyme assay (NADH at OD340 nm). It is filed as biochemical. To be noted: relative reaction rate normalized by the control reaction run prior to compound addition; vehicle 0.98. Here is the method:
FIGS. 7A-7C. […] (FIG. 7A) P7C3-A20 was incubated at indicated concentrations in a reaction coupled with three enzymes; NAMPT, NMNAT, and ADH (Experimental Procedures). NAMPT activity was recorded for the indicated period of time at OD340 nm by measuring NADH appearance, leading to the indicated concentration-time plot. […] (FIG. 7B) Analysis of the activities of thirty P7C3 analogs was performed to assess their effects on NAMPT enzymatic activity. The reaction rate was calculated as the slope of the concentration-time curve. Relative reaction rate was normalized by the control reaction run prior to compound addition. Data represents the mean of experimental duplicates. Scatter graphs were plotted to compare the ability of compounds to activate NAMPT relative to their ability to compete away P7C3-S326 crosslinking (top scatter plot), ability to protect cells from doxorubicin-mediated toxicity (middle scatter plot), or ability to facilitate NAD restoration in doxorubicin-treated cells (bottom scatter plot). […] Data are expressed as mean±SD of duplicate independent assays.
The enzymatic activity of recombinant NAMPT was monitored in a coupled assay wherein nicotinamide conversion to NMN was followed by sequential production of NAD (via the NMNAT enzyme) and NADH (via alcohol dehydrogenase). To minimize variation, a control reaction was run in each assay prior to compound addition.
Briefly, NAMPT first converted nicotinamide to NMN, which was followed by sequential production of NAD via nicotinamide mononucleotide adenylyl-transferase (NMNAT). NAD was then reduced to NADH by alcohol dehydrogenase (Sigma) using alcohol as the substrate. The resulting NADH was monitored by OD340 nm. […] 10 mM stocks of P7C3 analogs in DMSO were further diluted in ethanol prior to applying to the reaction. To minimize variation, a control reaction was run in each assay prior to compound addition.

The target in assay [2] is T2, p70 (NAMPT) (Homo sapiens, UniProt P43490).
T2 construct: endogenous in cells; host or cells: H2122 lung cancer cells
T2 sequence (P43490 whole entry): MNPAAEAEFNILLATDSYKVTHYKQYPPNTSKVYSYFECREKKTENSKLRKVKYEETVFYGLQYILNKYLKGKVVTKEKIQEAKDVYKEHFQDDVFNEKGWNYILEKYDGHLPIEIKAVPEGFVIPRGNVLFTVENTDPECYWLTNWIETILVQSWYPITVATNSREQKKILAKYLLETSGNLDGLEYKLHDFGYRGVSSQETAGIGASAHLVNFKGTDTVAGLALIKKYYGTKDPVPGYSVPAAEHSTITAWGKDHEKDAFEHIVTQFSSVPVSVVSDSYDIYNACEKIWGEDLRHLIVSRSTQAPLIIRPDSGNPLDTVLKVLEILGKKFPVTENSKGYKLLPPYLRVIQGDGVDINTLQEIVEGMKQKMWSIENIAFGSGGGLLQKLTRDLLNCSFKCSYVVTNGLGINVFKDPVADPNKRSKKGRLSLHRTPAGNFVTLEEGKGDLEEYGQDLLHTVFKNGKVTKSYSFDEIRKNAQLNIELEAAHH
Put plainly: binding competition for photo-crosslinking of P7C3-S326 to p70 in H2122 cells. To be noted: 0.3 μM P7C3-S326 plus 5 μM competitor, p70 band intensity, P7C3-S326 alone compared with plus competitor, vehicle 1.0. The procedure, abridged: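 H2122 cells were co-treated with 0.3 μM P7C3-S326 and 5 uM competing P7C3 analogs for 2 hours at 37° C, then UV-crosslinked at 306 nm for 15 minutes. Lysates were clicked to a fluorescent dye and run on SDS-PAGE. The p70 band was quantified relative to the DMSO control.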

For assay [3], the system named is hippocampal neurogenesis (Dentate Gyrus). Put plainly: in vivo neurogenesis assay (BrdU+ cells in dentate gyrus). Further details: species or system mice. To be noted: living mice; vehicle (DMSO) 7.3. Put shortly: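 Pools of ten compounds infused into the left ventricle of two adult mice per pool via cannula and mini-pump over one week, aimed at mid-nanomolar levels. Daily BrdU co-injected; brain sections stained for BrdU to count new dentate gyrus cells.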

Structures are written as SMILES.

T1 sequence (P43490 whole entry): as above

Consider `Cl.NCC(F)Cn1c2ccc(Br)cc2c2cc(Br)ccc21` (stereo not drawn) [S217], for which, in assay [1], the NAMPT activation amounted to 0.89. Besides, in assay [2], the Binding competition amounted to 2.6. Besides, the “Neurogenesis # BrdU+ Cells (X10E06)/mm3 Dentate Gyrus” value (from here on “Neurogenesis # BrdU+ Cells”) in assay [3] is 12.3 (X10E06)/mm3.

In assay [1], `CN1C(=O)CN=C(c2ccc(Cl)cc2)c2cc(Cl)ccc21` [S203] showed an NAMPT activation of 1.00. In addition, in assay [2], the Binding competition is given as 3.9. Moreover, in assay [3], the “Neurogenesis # BrdU+ Cells” value is 10.8 (X10E06)/mm3.

Regarding `c1ccc2c(c1)CCc1ccccc1N2` [S212], the NAMPT activation in assay [1] is reported as 1.04. Besides, the Binding competition in assay [2] stood at 1.0. Further, the “Neurogenesis # BrdU+ Cells” value in assay [3] is reported as 10.3 (X10E06)/mm3.

For the molecule `Brc1ccc2c(c1)c1cc(Br)ccc1n2Cc1nnn[nH]1` [S233], the NAMPT activation in assay [1] worked out at 0.88. For the same molecule, in assay [2], the Binding competition was 0.9. The “Neurogenesis # BrdU+ Cells” value in assay [3] is 7.3 (X10E06)/mm3.

Consider `O=S(=O)(CC(F)Cn1c2ccc(Br)cc2c2cc(Br)ccc21)c1cccc(O)c1` (stereo not drawn) [S101], for which, in assay [1], the NAMPT activation stood at 1.12. In addition, the Binding competition in assay [2] is listed as 2.4. In assay [3], the “Neurogenesis # BrdU+ Cells” value is 9.9 (X10E06)/mm3.

`COc1cccc(S(=O)(=O)CC(F)Cn2c3ccc(Br)cc3c3cc(Br)ccc32)c1` (stereo not drawn) [S81] gave an NAMPT activation in assay [1] of 0.96. Besides, the Binding competition in assay [2] came out at 1.2. For the same molecule, the “Neurogenesis # BrdU+ Cells” value in assay [3] is on record as 12.6 (X10E06)/mm3.

Consider `COCCOCCOc1ccc(NCC(F)Cn2c3ccc(Br)cc3c3cc(Br)ccc32)cc1` (stereo not drawn) [S66], for which the NAMPT activation in assay [1] is 1.21. Moreover, the Binding competition in assay [2] is 3.5. Besides, the “Neurogenesis # BrdU+ Cells” value in assay [3] is given as 9.7 (X10E06)/mm3.

Molecule `NC(=O)Cn1c2ccc(Br)cc2c2cc(Br)ccc21` [S213] registered an NAMPT activation in assay [1] of 1.00. The Binding competition in assay [2] stood at 1.1. For the same molecule, the “Neurogenesis # BrdU+ Cells” value in assay [3] is 6.5 (X10E06)/mm3.

Molecule `COc1cccc(NCC(=O)Cn2c3ccc(Br)cc3c3cc(Br)ccc32)c1` [S3] returned an NAMPT activation in assay [1] of 1.06. Moreover, the Binding competition in assay [2] worked out at 2.3. In addition, the “Neurogenesis # BrdU+ Cells” value in assay [3] is reported as 9.2 (X10E06)/mm3.

For `N#Cc1[nH]c2ccc(Br)cc2c1N` [S222], the NAMPT activation in assay [1] was 1.02. In assay [2], the Binding competition was 1.3. Besides, in assay [3], the “Neurogenesis # BrdU+ Cells” value was 15.1 (X10E06)/mm3.

`COc1cccc(NCC(Cn2c3ccc(Br)cc3c3cc(Br)ccc32)OC)c1` (stereo not drawn) [S13]: the NAMPT activation in assay [1] was 1.21. Besides, the Binding competition in assay [2] was determined as 1.7. Besides, in assay [3], the “Neurogenesis # BrdU+ Cells” value is reported as 11.6 (X10E06)/mm3.

`O=C(Cn1c2ccc(Br)cc2c2cc(Br)ccc21)NS(=O)(=O)c1ccccc1` [S230] gave an NAMPT activation in assay [1] of 1.02. The Binding competition in assay [2] was 1.0. The “Neurogenesis # BrdU+ Cells” value in assay [3] is given as 15.3 (X10E06)/mm3.

`O=S(=O)(CC(F)Cn1c2ccc(Br)cc2c2cc(Br)ccc21)c1ccc(O)cc1` (stereo not drawn) [S103] displayed an NAMPT activation in assay [1] of 0.97. In addition, in assay [2], the Binding competition is 1.9. In addition, in assay [3], the “Neurogenesis # BrdU+ Cells” value is 7.0 (X10E06)/mm3.

Molecule `CC(C)(C)OC(=O)NCC(F)Cn1c2ccc(Br)cc2c2cc(Br)ccc21` (stereo not drawn) [S208] had an NAMPT activation in assay [1] of 1.16. Further, in assay [2], the Binding competition is given as 1.2. In assay [3], the “Neurogenesis # BrdU+ Cells” value is on record as 13.5 (X10E06)/mm3.

In assay [1], `COc1cccc(NCC(F)(F)Cn2c3ccc(Br)cc3c3cc(Br)ccc32)c1` [S59] came in with an NAMPT activation of 1.02. Besides, the Binding competition in assay [2] is recorded as 1.2. For the same molecule, the “Neurogenesis # BrdU+ Cells” value in assay [3] was 10.7 (X10E06)/mm3.

In the case of `Brc1ccc2c(c1)c1cc(Br)ccc1n2CCCNc1ccccc1` [S33], in assay [1], the NAMPT activation amounted to 1.12. Also, the Binding competition in assay [2] was 2.8. For the same molecule, the “Neurogenesis # BrdU+ Cells” value in assay [3] was 11.6 (X10E06)/mm3.

As for `N#CCn1c2ccc(Br)cc2c2cc(Br)ccc21` [S235], the NAMPT activation in assay [1] came to 0.97. In addition, the Binding competition in assay [2] amounted to 1.8. The “Neurogenesis # BrdU+ Cells” value in assay [3] is given as 11.7 (X10E06)/mm3.

In the case of `O=S(=O)(CC(F)Cn1c2ccc(Br)cc2c2cc(Br)ccc21)c1ccccc1` (stereo not drawn) [S53], the NAMPT activation in assay [1] stood at 1.05. The Binding competition in assay [2] stood at 1.4. Besides, in assay [3], the “Neurogenesis # BrdU+ Cells” value is given as 17.1 (X10E06)/mm3.

Molecule `Cc1cc2c(cn1)[nH]c1ccc(Br)cc12` [S226] showed an NAMPT activation in assay [1] of 0.96. In addition, the Binding competition in assay [2] is 1.9. For the same molecule, in assay [3], the “Neurogenesis # BrdU+ Cells” value is given as 12.8 (X10E06)/mm3.

For `CS(=O)(=O)NC(=O)Cn1c2ccc(Br)cc2c2cc(Br)ccc21` [S232], in assay [1], the NAMPT activation is reported as 1.00. Further, the Binding competition in assay [2] is listed as 0.9. Also, in assay [3], the “Neurogenesis # BrdU+ Cells” value is listed as 8.4 (X10E06)/mm3.

In turn, `COc1cccc(N(C)CC(F)Cn2c3ccc(Br)cc3c3cc(Br)ccc32)c1` (stereo not drawn) [S11] yielded an NAMPT activation in assay [1] of 1.21. Moreover, in assay [2], the Binding competition stood at 2.0. Also, the “Neurogenesis # BrdU+ Cells” value in assay [3] is 12.8 (X10E06)/mm3.

In assay [1], `COc1cccc(NC(SC)C(=O)Cn2c3ccc(Br)cc3c3cc(Br)ccc32)c1` (stereo not drawn) [S4] yielded an NAMPT activation of 1.01. Also, in assay [2], the Binding competition amounted to 1.4. Further, the “Neurogenesis # BrdU+ Cells” value in assay [3] was 11.7 (X10E06)/mm3.

With `COc1ccc(S(=O)(=O)CC(F)Cn2c3ccc(Br)cc3c3cc(Br)ccc32)cc1` (stereo not drawn) [S83], the NAMPT activation in assay [1] is 1.01. For the same molecule, the Binding competition in assay [2] came out at 1.0. Also, the “Neurogenesis # BrdU+ Cells” value in assay [3] is 12.5 (X10E06)/mm3.

On to `FC(COc1ccccc1)Cn1c2c(c3cc(Br)ccc31)CNCC2` (stereo not drawn) [S108], for which, in assay [2], the Binding competition is listed as 1.0. Further, the “Neurogenesis # BrdU+ Cells” value in assay [3] was 7.6 (X10E06)/mm3.

Turning to `CN(C)CCC=C1c2ccccc2CCc2ccccc21.Cl` [S86, Amitriptyline, reference compound], the Binding competition in assay [2] was 1.3. Also, the “Neurogenesis # BrdU+ Cells” value in assay [3] is 9.7 (X10E06)/mm3.

For `OC(CNc1ccccc1)CN(c1ccc(Br)cc1)c1ccc(Br)cc1` (stereo not drawn) [S72], the Binding competition in assay [2] worked out at 1.4. Besides, the “Neurogenesis # BrdU+ Cells” value in assay [3] was 11.7 (X10E06)/mm3.

As for `OC(CNc1ccccc1)Cn1c2ccc(I)cc2c2cc(I)ccc21` (stereo not drawn) [S63], the Binding competition in assay [2] came out at 1.5. Moreover, in assay [3], the “Neurogenesis # BrdU+ Cells” value was 8.3 (X10E06)/mm3.

Regarding `CN(C)c1nc(O)c2[nH]c3ccccc3c2n1` [S245], the Binding competition in assay [2] amounted to 1.0. Further, in assay [3], the “Neurogenesis # BrdU+ Cells” value is recorded as 16.2 (X10E06)/mm3.

Turning to `CCOC(=O)C1=NCc2c(c3ccccc3n2S(=O)(=O)c2ccc(C)cc2)N1` [S247], in assay [2], the Binding competition is on record as 1.6. The “Neurogenesis # BrdU+ Cells” value in assay [3] was 15.6 (X10E06)/mm3.

On to `O=C(O)Cn1c2ccc(Br)cc2c2cc(C(=O)O)ncc21` [S227], for which, in assay [2], the Binding competition turned out to be 0.9. Further, in assay [3], the “Neurogenesis # BrdU+ Cells” value is recorded as 12.9 (X10E06)/mm3.

As to `COc1c(Br)ccc2c1c1cc(Br)ccc1n2CC(O)CNc1ccccc1` (stereo not drawn) [S168], in assay [2], the Binding competition is recorded as 3.5. For the same molecule, the “Neurogenesis # BrdU+ Cells” value in assay [3] is recorded as 14.6 (X10E06)/mm3.

Take `OC(CNC1CCCCC1)Cn1c2ccc(Br)cc2c2cc(Br)ccc21` (stereo not drawn) [S109]: the Binding competition in assay [2] worked out at 1.2. The “Neurogenesis # BrdU+ Cells” value in assay [3] is recorded as 9.4 (X10E06)/mm3.

These data come from patent publication US9243281B2, “Neuroprotective chemicals and methods for identifying and using same” (Board of Regents of The University of Texas System, priority 2013, dated 2016).
